Measured values: patent US8293731B2, “HIV integrase inhibitors” (Merck Sharp + Dohme Corp., priority 2005, dated 2012)

test system: HIV; test: Assay for inhibition of HIV replication (spread assay): acute HIV infection of T-lymphoid cells; format: cell-based; conditions: Human immunodeficiency virus 1, 'less than about'
Method: Assays for the inhibition of acute HIV infection of T-lymphoid cells were conducted in accordance with Vacca, J. P. et al., Proc. Natl. Acad. Set USA 1994, 91: 4096. […] For example, the compounds of Examples 1 to 64 were tested in this assay and found to have IC95 values of less than about 10 micromolar.

SMILES | IC95 [µM]
C[C@H]1C[C@H](O)CN(C)C(=O)c2c3c(c(O)c(=O)n21)C(=O)N(Cc1ccc(F)c(Cl)c1)CC3 [Example 44, (4S,6S)-11-(3-Chloro-4-fluorobenzyl)-4,9-dihydroxy-2,6-dimethyl-3,4,5,6,12,13-hexahydro-2H[1,4]diazocino[2,1-a]-2,6-naphthyridine-1,8,10(11H)-trione] | < 10
CC1CCCN(CCN2CCCC2)C(=O)c2c3c(c(O)c(=O)n21)C(=O)N(Cc1ccc(F)c(Cl)c1)CC3 (stereo not shown) [Example 34, 11-(3-Chloro-4-fluorobenzyl)-9-hydroxy-2-(2-pyrrolidinyl-1-ylethyl)-6-methyl-3,4,5,6,12,13-hexahydro-2H[1,4]diazocino[2,1-a]-2,6-naphthyridine-1,8,10(11H)-trione] | < 10
CN(C)C(=O)CN1C(=O)C(C)(C)n2c1c1c(c(O)c2=O)C(=O)N(Cc2ccc(F)c(Cl)c2)CC1 [Example 51, 2-[8-(3-Chloro-4-fluorobenzyl)-6-hydroxy-3,3-dimethyl-2,5,7-trioxo-2,3,7,8,9,10-hexahydroimidazo[2,1-a]-2,6-naphthyridin-1(5H)-yl]-N,N-dimethylacetamide] | < 10
CN1CCC[C@H](CO)n2c(c3c(c(O)c2=O)C(=O)N(Cc2ccc(F)c(Cl)c2)CC3)C1=O [Example 47, (6R)-11-(3-Chloro-4-fluorobenzyl)-9-hydroxy-6-(hydroxymethyl)-2-methyl-3,4,5,6,12,13-hexahydro-2H-[1,4]diazocino[2,1-a]-2,6-naphthyridine-1,8,10(11H)-trione] | < 10
CNC(=O)CN1C(=O)C(C)(C)n2c1c1c(c(O)c2=O)C(=O)N(Cc2ccc(F)c(Cl)c2)CC1 [Example 52, 2-[8-(3-Chloro-4-fluorobenzyl)-6-hydroxy-3,3-dimethyl-2,5,7-trioxo-2,3,7,8,9,10-hexahydroimidazo[2,1-a]-2,6-naphthyridin-1(5H)-yl]-N-methylacetamide] | < 10
CN1C(=O)C(C)(C)n2c1c1c(c(O)c2=O)C(=O)N(Cc2ccc(F)c(Cl)c2)CC1 [Example 9, 8-(3-Chloro-4-fluorobenzyl)-6-hydroxy-1,3,3-trimethyl-1,8,9,10-tetrahydroimidazo[2,1a]-2,6-naphthyridine-2,5,7(3H)-trione] | < 10
CN1CCCCn2c(c3c(c(O)c2=O)C(=O)N(Cc2ccc(F)c(Cl)c2)CC3)C1=O [Example 1, 11-(3-Chloro-4-fluorobenzyl)-9-hydroxy-2-methyl-3,4,5,6,12,13-hexahydro-2H[1,4]diazocino[2,1-a]-2,6-naphthyridine-1,8,10(11H)-trione] | < 10
O=C(O)CN1CCCCn2c(c3c(c(O)c2=O)C(=O)N(Cc2ccc(F)c(Cl)c2)CC3)C1=O [Example 12, [11-(3-Chloro-4-fluorobenzyl)-9-hydroxy-1,8,10-trioxo-1,3,4,5,6,8,10,11,12,13-deca-hydro-2H-[1,4]diazocino[2,1-a]-2,6-naphthyridin-2-yl]acetic acid] | < 10
CN1CCC[C@@H](CO)n2c(c3c(c(O)c2=O)C(=O)N(Cc2ccc(F)c(Cl)c2)CC3)C1=O [Example 49, (6S)-11-(3-Chloro-4-fluorobenzyl)-9-hydroxy-6-(hydroxymethyl)-2-methyl-3,4,5,6,12,13-hexahydro-2H-[1,4]diazocino[2,1-a]-2,6-naphthyridine-1,8,10(11H)-trione] | < 10
CN1CC(O)C(C)(C)Cn2c(c3c(c(O)c2=O)C(=O)N(Cc2ccc(F)c(Cl)c2)CC3)C1=O (racemic) [Example 38, (4R/S)-11-(3-Chloro-4-fluorobenzyl)-4,9-dihydroxy-2,5,5-trimethyl-3,4,5,6,12,13-hexahydro-2H[1,4]diazocino[2,1-a]-2,6-naphthyridine-1,8,10(11H)-trione] | < 10
CC1(C)C(=O)N(CC(N)=O)c2c3c(c(O)c(=O)n21)C(=O)N(Cc1ccc(F)c(Cl)c1)CC3 [Example 53, 2-[8-(3-Chloro-4-fluorobenzyl)-6-hydroxy-3,3-dimethyl-2,5,7-trioxo-2,3,7,8,9,10-hexahydroimidazo[2,1-a]-2,6-naphthyridin-1(5H)-yl]acetamide] | < 10
O=C1c2c(c3n(c(=O)c2O)CCCCN(CCN2CCCCC2)C3=O)CCN1Cc1ccc(F)c(Cl)c1 [Example 18, 11-(3-Chloro-4-fluorobenzyl)-9-hydroxy-2-(2-piperidinyl-1-ylethyl)-3,4,5,6,12,13-hexahydro-2H[1,4]diazocino[2,1-a]-2,6-naphthyridine-1,8,10(11H)-trione] | < 10
CC1CCCN(CCn2cccn2)C(=O)c2c3c(c(O)c(=O)n21)C(=O)N(Cc1ccc(F)c(Cl)c1)CC3 (stereo not shown) [Example 35, 11-(3-Chloro-4-fluorobenzyl)-9-hydroxy-2-[2-(1H-pyrazol-1-yl)ethyl]-6-methyl-3,4,5,6,12,13-hexahydro-2H[1,4]diazocino[2,1-a]-2,6-naphthyridine-1,8,10(11H)-trione] | < 10
CC(=O)NCCN1CCCCn2c(c3c(c(O)c2=O)C(=O)N(Cc2ccc(F)c(Cl)c2)CC3)C1=O [Example 20, 11-(3-Chloro-4-fluorobenzyl)-9-hydroxy-2-[2-(acetylamino)ethyl]-3,4,5,6,12,13-hexahydro-2H[1,4]diazocino[2,1-a]-2,6-naphthyridine-1,8,10(11H)-trione] | < 10
CS(=O)(=O)NCCN1CCCCn2c(c3c(c(O)c2=O)C(=O)N(Cc2ccc(F)c(Cl)c2)CC3)C1=O [Example 21, 11-(3-Chloro-4-fluorobenzyl)-9-hydroxy-2-[2-(methamesulfonylamino)ethyl]-3,4,5,6,12,13-hexahydro-2H[1,4]diazocino[2,1-a]-2,6-naphthyridine-1,8,10(11H)-trione] | < 10
CN1CCCn2c(c3c(c(O)c2=O)C(=O)N(Cc2ccc(F)c(Cl)c2)CC3)C1=O [Example 3, 10-(3-Chloro-4-fluorobenzyl)-8-hydroxy-2-methyl-2,3,4,5,11,12-hexahydro[1,4]diazepino[2,1-a]-2,6-naphthyridine-1,7,9(10H)-trione] | < 10
NCCN1CCCCn2c(c3c(c(O)c2=O)C(=O)N(Cc2ccc(F)c(Cl)c2)CC3)C1=O [Example 19, 11-(3-Chloro-4-fluorobenzyl)-9-hydroxy-2-(2-aminoethyl)-3,4,5,6,12,13-hexahydro-2H[1,4]diazocino[2,1-a]-2,6-naphthyridine-1,8,10(11H)-trione] | < 10
O=C1NCCn2c1c1c(c(O)c2=O)C(=O)N(Cc2ccc(F)c(Cl)c2)CC1 [Example 5, 9-(3-Chloro-4-fluorobenzyl)-7-hydroxy-3,4,10,11-tetrahydro-2H-pyrazino[2,1-a]-2,6-naphthyridine-1,6,8(9H)-trione] | < 10
O=C1c2c(c3n(c(=O)c2O)CCCCN(CCN2CCOCC2)C3=O)CCN1Cc1ccc(F)c(Cl)c1 [Example 16, 11-(3-Chloro-4-fluorobenzyl)-9-hydroxy-2-(2-morpholin-4-ylethyl)-3,4,5,6,12,13-hexahydro-2H[1,4]diazocino[2,1a]-2,6-naphthyridine-1,8,10(11H)-trione] | < 10
O=C1OC(CO)Cn2c1c1c(c(O)c2=O)C(=O)N(Cc2ccc(F)c(Cl)c2)CC1 (stereo not shown) [Example 64, 9-(3-Chloro-4-fluorobenzyl)-7-hydroxy-3-(hydroxymethyl)-3,4,10,11-tetrahydro[1,4]oxazino[3,4-a]-2,6-naphthyridine-1,6,8(9H)trione] | < 10
CN1CC(O)C(C)(C)Cn2c(c3c(c(O)c2=O)C(=O)N(Cc2ccc(F)cc2)CC3)C1=O (racemic) [Example 42, (4R/S)-11-(4-Fluorobenzyl)-4,9-dihydroxy-2,5,5-trimethyl-3,4,5,6,12,13-hexahydro-2H[1,4]diazocino[2,1-a]-2,6-naphthyridine-1,8,10(11H)-trione] | < 10
CN1CC(O)C(C)(C)Cn2c(c3c(c(O)c2=O)C(=O)N(Cc2ccc(F)c(Cl)c2)CC3)C1=O (racemic) [Example 40, (4R/S)-11-(3-Chloro-4-fluorobenzyl)-4,9-dihydroxy-2,5,5-trimethyl-3,4,5,6,12,13-hexahydro-2H[1,4]diazocino[2,1-a]-2,6-naphthyridine-1,8,10(11H)-trione] | < 10
CC1CCn2c(c3c(c(O)c2=O)C(=O)N(Cc2ccc(F)c(Cl)c2)CC3)C(=O)N(C)C1 (stereo not shown) [Example 46, 11-(3-Chloro-4-fluorobenzyl)-9-hydroxy-2,4-dimethyl-3,4,5,6,12,13-hexahydro-2H[1,4]diazocino[2,1-a]-2,6-naphthyridine-1,8,10(11H)-trione] | < 10
CN1CCn2c(c3c(c(O)c2=O)C(=O)N(Cc2ccc(F)c(Cl)c2)CC3)C1=O [Example 6, 9-(3-Chloro-4-fluorobenzyl)-7-hydroxy-2-methyl-3,4,10,11-tetrahydro-2H-pyrazino[2,1-a]-2,6-naphthyridine-1,6,8(9H)-trione] | < 10
CN1CCC(O)Cn2c(c3c(c(O)c2=O)C(=O)N(Cc2ccc(F)c(Cl)c2)CC3)C1=O (stereo not shown) [Example 37, 11(3-Chloro-4-fluorobenzyl)-5,9-dihydroxy-2-methyl-3,4,5,6,12,13-hexahydro-2H[1,4]diazocino[2,1-a]-2,6-naphthyridine-1,8,10(11H)-trione] | < 10
CC1CCCN(CCN2CCOCC2)C(=O)c2c3c(c(O)c(=O)n21)C(=O)N(Cc1ccc(F)c(Cl)c1)CC3 (stereo not shown) [Example 32, 11-(3-Chloro-4-fluorobenzyl)-9-hydroxy-2-(2-morpholin-4-ylethyl)-6-methyl-3,4,5,6,12,13-hexahydro-2H[1,4]diazocino[2,1-a]-2,6-naphthyridine-1,8,10(11H)-trione] | < 10
CC1CCCN(CCO)C(=O)c2c3c(c(O)c(=O)n21)C(=O)N(Cc1ccc(F)c(Cl)c1)CC3 (stereo not shown) [Example 30, 11-(3-Chloro-4-fluorobenzyl)-9-hydroxy-2-(2-hydroxyethyl)-6-methyl-3,4,5,6,12,13-hexahydro-2H[1,4]diazocino[2,1-a]-2,6-naphthyridine-1,8,10(11H)-trione] | < 10
CC(=O)OCCCN1C(=O)C(C)(C)n2c1c1c(c(O)c2=O)C(=O)N(Cc2ccc(F)c(Cl)c2)CC1 [Example 58, 8-(3-Chloro-4-fluorobenzyl)-6-hydroxy-1-(3-acetyloxypropyl)-3,3-dimethyl-1,8,9,10-tetrahydroimidazo[2,1-a]-2,6-naphthyridine-2,5,7(3H)-trione] | < 10
